Drawing on patent EP0048954A2, “Beta-lactam compounds, process for the preparation thereof and intermediate products for the preparation thereof” (SAGAMI CHEMICAL RESEARCH CENTER, priority 1980, dated 1982), this text covers minimum inhibition concentration and MIC for seven compounds.

≈ marks a conversion by molar mass, not a printed value. Where “and” joins values, the source holds several entries; their conditions need not be identical. Identical values can stand only once. Counter-ions that a name gives are not always drawn. A value given as a limit tells only on which side of the number the result lay.

Experiment in all cases: Antibacterial activity, minimum inhibition concentration (method of The Chemotherapy Association, Japan)
Common to all, as to format: cell-based

One test has as its system Escherichia coli NIHJ. The settings on record: strain K: Escherichia coli NIHJ; for MIC: Escherichia coli, read-out: minimum inhibition concentration. The procedure, abridged:
(§1)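 Lowest concentration inhibiting growth, in µg/mℓ; protocol per the Japan Chemotherapy Association MIC standard.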

Test [1] relates to Staphylococcus aureus 6538-P. The settings on record: strain A: Staphylococcus aureus 6538-P; read-out: minimum inhibition concentration. The procedure, abridged: as §1
Test [2] deals with Serratia marcescens IFO-3736. The settings on record: for MIC: Serratia marcescens, IFO3736, strain F: Serratia marcescens IFO-3736, read-out: minimum inhibition concentration; for minimum inhibition concentration: strain F: Serratia marcescens IFO-3736. A digest of the protocol: as §1
Test [3] deals with Salmonella typhimurium 3173. The settings on record: Salmonella enterica, TYPHIMURIUM, strain D: Salmonella typhimurium 3173; read-out: minimum inhibition concentration. The procedure, abridged: as §1
The subject of test [4] is Citrobactor freundii NIH-10018 -68. As to conditions: strain O: Citrobactor freundii NIH-10018 -68; read-out: minimum inhibition concentration. The procedure, abridged: as §1
The test system of test [5] is Pseudomonas aeruginosa NCTC-10490. The settings on record: for MIC: Pseudomonas aeruginosa, NCTC10490, strain M: Pseudomonas aeruginosa NCTC-10490, read-out: minimum inhibition concentration; for minimum inhibition concentration: strain M: Pseudomonas aeruginosa NCTC-10490. A digest of the protocol: as §1
The test system of test [6] is Bacillus subtilis ATCC 6633. As to conditions: for MIC: Bacillus subtilis, ATCC6633, strain B: Bacillus subtilis ATCC 6633, read-out: minimum inhibition concentration. A digest of the protocol:
as §1

In the next test the test system is Klebsiella pneumoniae. As to conditions: strain C: Klebsiella pneumoniae; for MIC: Klebsiella pneumoniae, read-out: minimum inhibition concentration. A digest of the protocol: as §1
A further test relates to Proteus morgani Kono. As to conditions: strain J: Proteus morgani Kono; for MIC: read-out: minimum inhibition concentration. A digest of the protocol: as §1
A further test relates to Serratia marcescens 1023. The settings on record: for MIC: Serratia marcescens, 1023, strain E: Serratia marcescens 1023, read-out: minimum inhibition concentration. A digest of the protocol: as §1
For test [7], the system named is Proteus mirabillis B-30-2 IFO-3849. As to conditions: strain G: Proteus mirabillis B-30-2 IFO-3849; for MIC: read-out: minimum inhibition concentration. The procedure, abridged:
as §1

The subject of another test is Escherichia coli NIHJC-2. As to conditions: for MIC: Escherichia coli, NIHJC2, strain L: Escherichia coli NIHJC-2, read-out: minimum inhibition concentration. A digest of the protocol: as §1
The test system of test [8] is Enterobactor cloacae NCTC-9394. As to conditions: strain N: Enterobactor cloacae NCTC-9394; for MIC: read-out: minimum inhibition concentration. A digest of the protocol: as §1
A further test relates to Proteus rettgeri NIH-96. The settings on record: for minimum inhibition concentration: strain I: Proteus rettgeri NIH-96; for MIC: Providencia rettgeri, NIH96, strain I: Proteus rettgeri NIH-96, read-out: minimum inhibition concentration. The source says: (§2) The abbreviations A to P will be used in the following Tables 2 to 8.
(§3) Test results are shown in terms of the minimum inhibition concentration (µg/mℓ.) in the following Tables 2 to 8.

For another test, the system named is Proteus vulgaris OX-19. As to conditions: Proteus vulgaris, OX19, strain H: Proteus vulgaris OX-19; read-out: minimum inhibition concentration.
From the text: as §2, §3

Turning to `CO/N=C(\C(=O)N[C@@H]1C(=O)N2C(C(=O)O)=C(COC(C)=O)CS[C@H]12)c1csc(N)n1` [Cefotaxime, reference compound], the minimum inhibition concentration with Escherichia coli NIHJ was <0.00625 µg/mL; in the test with Escherichia coli NIHJ (listed as Cefota-xime), <0.025 µg/mL; in test [2], 0.2 µg/mL (≈ 0.439 µM); in test [2] (listed as Cefota-xime), 0.39 µg/mL (≈ 0.856 µM); in [5], 0.39 µg/mL (≈ 0.856 µM); in test [5] (listed as Cefota-xime), 0.39 µg/mL (≈ 0.856 µM). The minimum inhibition concentration in [6] (strain B: Bacillus subtilis ATCC 6633) is 6.25 µg/mL (≈ 13.7 µM); in the test with Klebsiella pneumoniae, 0.05 µg/mL (≈ 0.11 µM); in the test with Proteus morgani Kono, 0.39 µg/mL (≈ 0.856 µM); in the test on Proteus morgani Kono (listed as Cefota-xime), 1.56 µg/mL and 0.78 µg/mL; with Serratia marcescens 1023 (strain E: Serratia marcescens 1023), 100 µg/mL (≈ 220 µM); in [7] it was 0.025 µg/mL (≈ 0.0549 µM). Also, the minimum inhibition concentration is 0.1 µg/mL (≈ 0.22 µM) in test [7] (listed as Cefota-xime); 0.1 µg/mL (≈ 0.22 µM) with Escherichia coli NIHJC-2 (strain L: Escherichia coli NIHJC-2); 0.2 µg/mL (≈ 0.439 µM) in [8]; 0.2 µg/mL (≈ 0.439 µM) in [8] (listed as Cefota-xime); <0.00625 µg/mL in the test on Proteus rettgeri NIH-96; <0.025 µg/mL in the test with Proteus rettgeri NIH-96 (listed as Cefota-xime). Moreover, the MIC in test [1] stood at 0.39 µg/mL (≈ 0.856 µM); in test [2], 0.2 µg/mL (≈ 0.439 µM); in test [3] it was 0.1 µg/mL (≈ 0.22 µM); in test [4], 0.2 µg/mL (≈ 0.439 µM); in [5], 0.78 µg/mL (≈ 1.71 µM); with Klebsiella pneumoniae, 0.1 µg/mL (≈ 0.22 µM). Besides, the MIC in the test on Serratia marcescens 1023 is 50 µg/mL (≈ 110 µM); in the test with Escherichia coli NIHJC-2 it was 0.2 µg/mL (≈ 0.439 µM); in test [8], 0.39 µg/mL (≈ 0.856 µM); in the test on Proteus vulgaris OX-19, < 0.025 µg/mL.
On to `CC(=O)OCC1=C(C(=O)O)N2C(=O)C(NC(=O)C(=C(Cl)Cl)c3ccc(C)cc3)[C@H]2SC1` (stereo partly shown) [Compound 28, 7-[2-dichloromethylene-2-(4-methylphenyl)acetamido]-3-acetoxymethyl-3-cephem-4-carboxylic acid], for which the MIC in the test on Escherichia coli NIHJ is > 100 µg/mL; in test [1] it was > 100 µg/mL; in [2], > 100 µg/mL; in test [3] it was > 100 µg/mL; in test [4], > 100 µg/mL; in [5] it was 50 µg/mL (≈ 103 µM). Further, the MIC in test [6] was 3.12 µg/mL (≈ 6.44 µM); with Klebsiella pneumoniae, > 100 µg/mL; with Proteus morgani Kono, > 100 µg/mL; in the test with Serratia marcescens 1023 it was 6.25 µg/mL (≈ 12.9 µM); in test [7], > 100 µg/mL; with Escherichia coli NIHJC-2 it was > 100 µg/mL. For the same compound, the MIC is > 100 µg/mL in [8], 3.12 µg/mL (≈ 6.44 µM) with Proteus rettgeri NIH-96 and 100 µg/mL (≈ 206 µM) in the test with Proteus vulgaris OX-19.
`CC(=O)OCC1=C(C(=O)O)N2C(=O)C(NC(=O)C(=C(Cl)Cl)c3ccc(NC(=O)OC(C)(C)C)cc3)C2SC1` (stereo not shown) [4-(1), 7-[2-dichloromethylene-2-(4-tert-butoxycarbonyl-aminophenyl)acetamido]-3-acetoxymethyl-3-cephem-4-carboxylic acid]: the MIC in the test on Escherichia coli NIHJ was 6.25 µg/mL (≈ 10.7 µM); in test [1], 0.39 µg/mL (≈ 0.665 µM); in test [2] it was > 100 µg/mL; in test [3], > 100 µg/mL; in test [4], > 100 µg/mL; in test [5], 50 µg/mL (≈ 85.3 µM). Further, the MIC in test [6] is 6.25 µg/mL (≈ 10.7 µM); with Klebsiella pneumoniae it was > 100 µg/mL; in the test with Proteus morgani Kono it was > 100 µg/mL; in the test with Serratia marcescens 1023, 6.25 µg/mL (≈ 10.7 µM); in [7], > 100 µg/mL; with Escherichia coli NIHJC-2, > 100 µg/mL. The MIC in [8] was > 100 µg/mL; in the test with Proteus rettgeri NIH-96 it was 6.25 µg/mL (≈ 10.7 µM); with Proteus vulgaris OX-19 it was > 100 µg/mL.
Turning to `Cn1nnnc1SCC1=C(C(=O)O)N2C(=O)C(NC(=O)C(=C(Cl)Cl)c3ccsc3)C2SC1` (stereo not drawn) [Compound 35, 7-[2-dichloromethylene-2-(3-thienyl)acetamido]-3-(l-methyl-lH-tetrazol-5-yl)thiomethyl-3-cephem-4-carboxylic acid], the MIC in the test on Escherichia coli NIHJ turned out to be 3.12 µg/mL (≈ 5.86 µM); in test [1], 0.2 µg/mL (≈ 0.375 µM); in [2], 100 µg/mL (≈ 187 µM); in test [3], 25 µg/mL (≈ 46.9 µM); in test [4] it was 100 µg/mL (≈ 187 µM); in test [5], 12.5 µg/mL (≈ 23.4 µM). Also, the MIC in [6] was 3.12 µg/mL (≈ 5.86 µM); in the test with Klebsiella pneumoniae, 50 µg/mL (≈ 93.7 µM); in the test on Proteus morgani Kono, > 100 µg/mL; in the test with Serratia marcescens 1023, 3.12 µg/mL (≈ 5.86 µM); in test [7], 100 µg/mL (≈ 187 µM); in the test on Escherichia coli NIHJC-2 it was 50 µg/mL (≈ 93.7 µM). The figures for the MIC (in [8]; with Proteus rettgeri NIH-96; in the test on Proteus vulgaris OX-19) were 12.5 µg/mL (≈ 23.4 µM), 0.1 µg/mL (≈ 0.187 µM) and 25 µg/mL (≈ 46.9 µM), respectively.
Consider `Cn1nnnc1SCC1=C(C(=O)O)N2C(=O)C(NC(=O)C(=CCl)c3csc(N)n3)C2SC1` (stereo not shown) [11-(3), 7-[2-chloromethylene-2-(2-aminothiazol-4-yl)-acetamido]-3-(1-methyl-lH-tetrazol-5-yl)thiomethyl-3-cephem-4-carboxylic acid sodium salt], for which the MIC with Escherichia coli NIHJ was < 0.00625 µg/mL; in [1], 0.39 µg/mL; in [2] it was 0.78 µg/mL; in test [3], 0.78 µg/mL; in test [4], 0.78 µg/mL; in [5], 1.56 µg/mL. The MIC in test [6] amounted to 3.12 µg/mL; in the test with Klebsiella pneumoniae, 0.78 µg/mL; with Proteus morgani Kono, 0.2 µg/mL; with Serratia marcescens 1023, 6.25 µg/mL; in test [7] it was 0.39 µg/mL; in the test on Escherichia coli NIHJC-2 it was 0.78 µg/mL. Moreover, the MIC in test [8] is 0.2 µg/mL; with Proteus rettgeri NIH-96, < 0.00625 µg/mL; with Proteus vulgaris OX-19, 0.025 µg/mL.
Turning to `CC(=O)OCC1=C(C(=O)O)N2C(=O)C(NC(=O)C(=C(Cl)Cl)c3ccc(Cl)c(Cl)c3)[C@H]2SC1` (stereo partly shown) [Compound 30, 7-[2-dichloromethylene-2-(3,4-dichlorophenyl)acetamido]-3-acetoxymethyl-3-cephem-4-carboxylic acid], the MIC in the test with Escherichia coli NIHJ is 100 µg/mL (≈ 185 µM); in [1] it was 100 µg/mL (≈ 185 µM); in [2], > 100 µg/mL; in test [3], > 100 µg/mL; in test [4], > 100 µg/mL; in test [5], 100 µg/mL (≈ 185 µM). Moreover, the MIC in [6] is 0.78 µg/mL (≈ 1.44 µM); in the test with Klebsiella pneumoniae it was > 100 µg/mL; in the test on Proteus morgani Kono, > 100 µg/mL; in the test with Serratia marcescens 1023, 6.25 µg/mL (≈ 11.6 µM); in test [7], > 100 µg/mL; with Escherichia coli NIHJC-2, > 100 µg/mL. Besides, the MIC in [8] was > 100 µg/mL; in the test on Proteus rettgeri NIH-96, 6.25 µg/mL (≈ 11.6 µM); in the test with Proteus vulgaris OX-19, > 100 µg/mL.
As for `CC(=O)OCC1=C(C(=O)O)N2C(=O)C(NC(=O)C(=C(Cl)Cl)c3csc(N)n3)[C@H]2SC1` (stereo partly shown) [5-(2), 7-[2-dichloromethylene-2-(2-aminothiazol-4-yl)acetamido]-3-acetoxymethyl-3-cephem-4-carboxylic acid], the MIC in the test with Escherichia coli NIHJ is 0.1 µg/mL (≈ 0.203 µM); in test [1], 1.56 µg/mL (≈ 3.16 µM); in [2] it was 50 µg/mL (≈ 101 µM); in test [3], 6.25 µg/mL (≈ 12.7 µM); in test [4], 6.25 µg/mL (≈ 12.7 µM); in test [5], 6.25 µg/mL (≈ 12.7 µM). The MIC in test [6] was determined as 12.5 µg/mL (≈ 25.3 µM); in the test with Klebsiella pneumoniae, 6.25 µg/mL (≈ 12.7 µM); in the test on Proteus morgani Kono, 25 µg/mL (≈ 50.7 µM); in the test on Serratia marcescens 1023, 12.5 µg/mL (≈ 25.3 µM); in test [7] it was 12.5 µg/mL (≈ 25.3 µM); with Escherichia coli NIHJC-2, 12.5 µg/mL (≈ 25.3 µM). Besides, the values for the MIC (in test [8]; with Proteus rettgeri NIH-96; with Proteus vulgaris OX-19) were 1.56 µg/mL (≈ 3.16 µM), < 0.025 µg/mL and 0.2 µg/mL (≈ 0.405 µM), respectively.
